Values after ≈ are worked out from the molar mass of the structure shown. “Also recorded” adds a separate entry of the source. Read-outs that look alike come from different tables or passages of the source.
How the values were obtained:
E. coli 25922 = assay: Spot-on-lawn MIC bioassay; format: cell-based, E. coli ATCC 25922; details: for lowest concentration which gave an inhibition zone: - Fe3+; for MIC: Escherichia coli, 25922, spot-on-lawn
Method: (§1) Indicator strains were grown for 16–18 h in LB (5 mL) by inoculation from a single colony. An aliquot of the resulting culture (500 μL) was then used to inoculate LB (50 mL in 250 mL Erlenmeyer flasks), followed by orbital shaking at 250 rpm until they reached an OD600 of 0.3–0.4. These cultures were then diluted 1 : 10 with molten soft nutrient agar (SNA), before pouring into appropriately sized Petri dishes to set. Serial dilutions of the test compounds (from 256 μg mL^−1 to 1 μg mL^−1 plus an additional sample at 1000 μg mL^−1) were prepared in acetonitrile (ACN), and 4 μL of each sample was applied directly onto the SNA surface. Kanamycin (50 μg mL^−1), apramycin (50 μg mL^−1) or aureobasidin A (0.2 μg mL^−1) were used as positive controls, as appropriate, and ACN or water (4 μL) were used as negative controls. […] Experiments were carried out in at least triplicate for each strain.
(§2) The method was the same as for the antibacterial MIC assays described above, with the following modifications: for excess iron, Fe(NO3)3·9H2O stock (400 mM) was added to give a final concentration of 1.5 or 2.0 mM; for iron depletion, bipy stock (1 M) was added to give a final concentration of 150 μM. For MRSA, 1 was further diluted to 0.5 0.25 and 0.125 μg mL^−1 due to a decrease in MIC under excess iron conditions. The general effect of excess iron on the activity of alternative antibiotics was determined by performing a similar serial dilution of carbenicillin, kanamycin, streptomycin, nitrofurantoin and chloramphenicol in the presence of Fe^3+.

S. aureus = assay: Bioassay of control antibiotics with and without additional Fe3+; format: cell-based
Method: as §2

EcThrRS = biological target: T1, EcThrRS (Escherichia coli, UniProt P0A8M3); assay: Aminoacylation assay; format: biochemical, E. coli; details: for concentration at which complete inhibition was observed / IC50: enzyme 10 nM; for IC50: 10 min preincubation with compound; for fold less potent than 1: ratio of IC50 values
T1 construct: His6 (N); made in house; host or cells: E. coli NiCo21(DE3)
Method: (§3) To measure the effects of 1–4 on ThrRS canonical tRNA charging activity, an assay modified from that reported by Ruan et al.[53] was used, where active enzyme was incubated with its necessary substrates and its activity measured using ^14C labeled Thr and a liquid scintillation counter. Purified ThrRS protein (10 nM) was pre-incubated with varying concentrations of compounds 1–4 or ACN for 10 min. After pre-incubation, ThrRS samples were added to a master reaction mixture with the final component concentrations of HEPES (100 mM, pH 7.0), ATP (4 mM), MgCl2 (10 mM), L-[U-^14C]threonine (50 μM, Moravek Inc.), and tRNA^Thr (5 μM). This mixture was incubated at room temperature for 10 min, with samples taken at 1, 2.5, 5, and 10 min. At each time point, a 7 μL aliquot was spotted onto a 5% trichloroacetic acid (TCA) presoaked 3 MM Whatman paper (Cytiva) squares (repeated in triplicate). After allowing the spots to dry, the Whatman paper was washed three times with 5% TCA, and once with 95% EtOH. The Whatman paper was dried and the counts on each square of paper analyzed using a Tri-Carb 2910 TR liquid scintillation counter using Hydrofluor Liquid Scintillation Fluid (National Diagnostics). To calculate IC50 values, fractional initial velocities (velocity of inhibited reaction/velocity in the absence of inhibitor) were plotted against the log of 1 concentration and then fitted to eqn (1), using GraphPad Prism.1 [drawing 1]

PfThrRS = PfThrRS (Pseudomonas fluorescens, UniProt C3JZN7); assay: Aminoacylation assay; format: biochemical, P. fluorescens; details: for IC100: read-out: concentration of full inhibition
Method: as §3

B. subtilis = assay: Spot-on-lawn MIC bioassay; format: cell-based, B. subtilis EC 1524; details: Bacillus subtilis
Method: as §1

[1] = Hydrolysis of the β-lactone in HEPES buffer monitored by HPLC; format: physicochemical; details: for effect of added Fe^3+ on hydrolysis (in words): Fe^3+ 1 mM, HEPES 100 mM, pH 6.0–8.0, 30 min; for hydrolysis of β-lactone (in words): pH 8.0, HEPES 100 mM, 30 min, no Fe^3+
Method: Hydrolysis of 1–4 was analysed on an Agilent 1290 system fitted with an Agilent LC/MSD MS spectrometer. A Kinetex XB-C18, 100 × 4.6 mm, 5 μM column (Phenomenex) was used with a gradient elution: ACN/0.1% (v/v) FA (H2O) gradient from 5/95 for 0–0.5 min, 5/95 to 98/2 0.5–12 min, 98/2 for 12–13 min, gradient to 5/95 13–13.5 min and 5/95 for 13.5–15 min. The flow rate was 0.6 mL min^−1 and the injection volume of each sample 5 μL. DAD signals were analysed at 270 nm, with a bandwidth of 4 nm. MS were recorded in positive mode using an atmospheric pressure ionisation electrospray (API-ES) ion source with a capillary voltage of 3000 V. The drying gas temperature was 350 °C with a flow rate of 12 L min^−1. The scan parameters were: mass range = 200–1500; fragmentor = 70; gain EMV = 1.0; threshold = 150; step-size = 0.10. Data were analysed with Agilent ChemStation software.
Five solutions of HEPES buffer (111 mM) were prepared at pH 6.0, 6.5, 7.0, 7.5 and 8.0 respectively. A further five solution of HEPES buffer (111 mM) with Fe(NO3)3.9H2O ([…]) were also prepared at pH 6.0, 6.5, 7.0, 7.5, 8.0 respectively. Stock solutions of 1–4 (10 mM) were prepared in DMSO. For each hydrolysis experiment, stock solution of 1–4 (10 μL) was added the HEPES buffer (90 μL) or the HEPES + Fe(NO3)3.9H2O buffer (90 μL), to give final concentrations of HEPES (100 mM), 1–4 (1 mM) and Fe^3+ (0 or 1 mM). The reaction mixtures were shaken using a bench top vortex and left to stand for 30 min, after which the samples were analysed by HPLC using the Analytical HPLC method. All stock solutions of 1–4 were tested at every pH, with and without Fe^3+ and all experiments were repeated in triplicate.

S. cerevisiae = assay: Spot-on-lawn MIC bioassay; format: cell-based, S. cerevisiae NCYC 2939; details: Saccharomyces cerevisiae
Method: as §1

MRSA = assay: Spot-on-lawn MIC bioassay; format: cell-based, Methicillin-resistant Staphylococcus aureus; details: spot-on-lawn; for MIC: Staphylococcus aureus, MRSA; for antibacterial activity (in words): Fig. S13
Method: as §1, §2

E. coli NR698 = assay: Spot-on-lawn MIC bioassay; format: cell-based; details: Escherichia coli
Method: as §1

[2] = Figure S10 legend, read-out: Minimum inhibitory concentration
[3] = standard conditions, read-out: MIC
[4] = Figure S9 legend, read-out: Minimum inhibitory concentration
[5] = Figure S12 legend, read-out: Minimum inhibitory concentration
[6] = Figure S8 legend, read-out: Minimum inhibitory concentration
[7] = NR698, read-out: Minimum inhibitory concentration

T1 sequence (P0A8M3 whole entry): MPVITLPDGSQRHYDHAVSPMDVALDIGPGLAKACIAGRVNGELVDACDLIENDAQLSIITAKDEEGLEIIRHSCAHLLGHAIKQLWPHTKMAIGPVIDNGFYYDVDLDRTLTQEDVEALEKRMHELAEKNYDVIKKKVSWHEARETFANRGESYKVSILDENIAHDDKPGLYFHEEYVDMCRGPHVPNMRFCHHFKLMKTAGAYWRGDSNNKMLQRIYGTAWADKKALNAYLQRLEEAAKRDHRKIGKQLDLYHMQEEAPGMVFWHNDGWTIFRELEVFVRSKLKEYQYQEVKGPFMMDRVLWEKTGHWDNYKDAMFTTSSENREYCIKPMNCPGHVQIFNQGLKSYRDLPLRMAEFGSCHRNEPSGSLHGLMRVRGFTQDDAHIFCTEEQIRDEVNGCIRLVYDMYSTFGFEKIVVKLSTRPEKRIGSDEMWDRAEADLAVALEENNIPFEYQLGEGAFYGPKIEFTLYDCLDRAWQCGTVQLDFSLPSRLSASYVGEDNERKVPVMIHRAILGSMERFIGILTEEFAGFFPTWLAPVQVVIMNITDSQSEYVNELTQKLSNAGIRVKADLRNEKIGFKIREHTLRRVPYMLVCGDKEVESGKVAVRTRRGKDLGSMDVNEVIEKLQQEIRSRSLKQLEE
Chain of PfThrRS (C3JZN7 whole entry): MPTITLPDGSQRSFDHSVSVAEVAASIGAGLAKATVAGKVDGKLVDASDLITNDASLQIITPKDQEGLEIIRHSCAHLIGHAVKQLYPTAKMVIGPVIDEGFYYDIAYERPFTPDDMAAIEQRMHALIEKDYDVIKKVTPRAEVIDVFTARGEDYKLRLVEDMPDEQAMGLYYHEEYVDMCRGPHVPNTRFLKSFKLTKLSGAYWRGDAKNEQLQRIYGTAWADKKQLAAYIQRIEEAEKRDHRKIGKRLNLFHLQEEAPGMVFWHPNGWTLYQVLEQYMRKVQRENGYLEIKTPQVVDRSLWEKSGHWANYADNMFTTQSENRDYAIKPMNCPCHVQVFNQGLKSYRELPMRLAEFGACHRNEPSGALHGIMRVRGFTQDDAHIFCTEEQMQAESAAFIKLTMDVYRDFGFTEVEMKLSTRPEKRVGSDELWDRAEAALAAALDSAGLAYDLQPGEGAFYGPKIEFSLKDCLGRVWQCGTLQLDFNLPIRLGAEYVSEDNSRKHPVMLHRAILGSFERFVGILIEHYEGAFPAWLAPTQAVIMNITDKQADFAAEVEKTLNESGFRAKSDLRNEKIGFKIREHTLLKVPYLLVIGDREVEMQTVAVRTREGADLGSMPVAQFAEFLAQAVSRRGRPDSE

## NC[C@H]1O[C@H](O[C@H]2[C@H](O)[C@@H](O[C@H]3O[C@H](CO)[C@@H](O)[C@H](N)[C@H]3O)[C@H](N)C[C@@H]2N)[C@H](O)[C@@H](O)[C@@H]1O [Kanamycin, kanamycin, reference compound]
E. coli 25922
  lowest concentration which gave an inhibition zone: 50 µg/mL
S. aureus
  lowest concentration which gave an inhibition zone: 50 µg/mL

## O=C(N[C@@H]1C(=O)O[C@@H]1Cc1ccc([N+](=O)[O-])cc1)c1cccc(O)c1 [compound 3, 3-HBA-obafluorin]
EcThrRS
  concentration at which complete inhibition was observed: 5000 nM
  fold less potent than 1: ~30 fold
EcThrRS; read-out: IC50
  IC50: 930 ± 80 nM
E. coli 25922; [2]
  MIC: > 1000 µg/mL
E. coli 25922; [3]
  MIC: > 1000 µg/mL
PfThrRS; enzyme 10 nM
  IC100: 5 µM
B. subtilis; [4]
  MIC: 1000 µg/mL (≈ 2920 µM)
B. subtilis; [3]
  MIC: 1000 µg/mL (≈ 2920 µM)
[1]
  effect of added Fe^3+ on hydrolysis (in words): no effect
  hydrolysis of β-lactone (in words): mainly hydrolysed
S. cerevisiae; [5]
  MIC: > 1000 µg/mL
S. cerevisiae; [3]
  MIC: > 1000 µg/mL
MRSA; [6]
  MIC: 1000 µg/mL (≈ 2920 µM)
MRSA; [3]
  MIC: 1000 µg/mL (≈ 2920 µM)
E. coli NR698; NR698
  MIC: > 1000 µg/mL
E. coli NR698; [7]
  MIC: > 1000 µg/mL

## O=C1CN(/N=C/c2ccc([N+](=O)[O-])o2)C(=O)N1 [Nitrofurantoin, nitrofurantoin, reference compound]
E. coli 25922
  lowest concentration which gave an inhibition zone: 500 µg/mL
S. aureus
  lowest concentration which gave an inhibition zone: 500 µg/mL

## O=C(N[C@@H]1C(=O)O[C@@H]1Cc1ccc([N+](=O)[O-])cc1)c1ccccc1 [compound 4, BA-obafluorin]
EcThrRS
  IC50: No inhibition
EcThrRS; up to the highest concentration tested (0–25 μM)
  inhibition of aminoacylation (in words): no significant inhibition
E. coli 25922; [2]
  MIC: > 1000 µg/mL
E. coli 25922; [3]
  MIC: > 1000 µg/mL
PfThrRS; enzyme 10 nM, 10 min preincubation with compound
  IC50: not inhibited; also recorded: No inhibition
PfThrRS; up to 25000 nM
  inhibition of aminoacylation (in words): no significant inhibition
B. subtilis; [4]
  MIC: > 1000 µg/mL
B. subtilis; [3]
  MIC: > 1000 µg/mL
[1]
  hydrolysis of β-lactone (in words): no hydrolysis; also recorded: stable to hydrolysis
S. cerevisiae; [5]
  MIC: > 1000 µg/mL
S. cerevisiae; [3]
  MIC: > 1000 µg/mL
MRSA; [6]
  MIC: > 1000 µg/mL
MRSA; [3]
  MIC: 1000 µg/mL (≈ 3060 µM)
E. coli NR698; NR698
  MIC: > 1000 µg/mL
E. coli NR698; [7]
  MIC: > 1000 µg/mL

## O=C(N[C@H](C(=O)O)[C@H](O)Cc1ccc([N+](=O)[O-])cc1)c1cccc(O)c1O [compound 5, β-lactone hydrolysed obafluorin]
MRSA
  antibacterial activity (in words): inactive

## [H]/N=C(/N)N[C@H]1[C@H](O)[C@@H](O)[C@H](O[C@@H]2O[C@@H](C)[C@](O)(C=O)[C@H]2O[C@@H]2O[C@@H](CO)[C@H](O)[C@@H](O)[C@@H]2NC)[C@@H](N/C(N)=N\[H])[C@@H]1O [Streptomycin, streptomycin, reference compound]
E. coli 25922
  lowest concentration which gave an inhibition zone: 50 µg/mL
S. aureus
  lowest concentration which gave an inhibition zone: 50 µg/mL

## O=C(N[C@H](C(=O)O)[C@H](O)Cc1ccc([N+](=O)[O-])cc1)c1ccccc1 [compound 7, β-lactone hydrolysed BA-obafluorin]
MRSA
  antibacterial activity (in words): inactive

## COC(=O)[C@@H](NC(=O)c1cccc(O)c1O)[C@H](O)Cc1ccc([N+](=O)[O-])cc1 [compound 6, β-lactone methanolysed obafluorin]
MRSA
  antibacterial activity (in words): inactive

## O=C(N[C@@H]1C(=O)O[C@@H]1Cc1ccc([N+](=O)[O-])cc1)c1ccccc1O [compound 2, 2-HBA-obafluorin]
EcThrRS
  concentration at which complete inhibition was observed: 10 000 nM
  fold less potent than 1: approximately 100 fold
EcThrRS; read-out: IC50
  IC50: 3700 ± 700 nM
E. coli 25922; [2]
  MIC: > 1000 µg/mL
E. coli 25922; [3]
  MIC: > 1000 µg/mL
PfThrRS; enzyme 10 nM
  IC100: 10 µM
B. subtilis; [4]
  MIC: 1000 µg/mL (≈ 2920 µM)
B. subtilis; [3]
  MIC: 1000 µg/mL (≈ 2920 µM)
[1]
  effect of added Fe^3+ on hydrolysis (in words): no effect
  hydrolysis of β-lactone (in words): mainly hydrolysed
S. cerevisiae; [5]
  MIC: > 1000 µg/mL
S. cerevisiae; [3]
  MIC: > 1000 µg/mL
MRSA; [6]
  MIC: 1000 µg/mL (≈ 2920 µM)
MRSA; [3]
  MIC: > 1000 µg/mL
E. coli NR698; NR698
  MIC: 1000 µg/mL (≈ 2920 µM)
E. coli NR698; [7]
  MIC: > 1000 µg/mL

## CN[C@@H]1[C@@H](O[C@H]2O[C@H](CO)[C@@H](N)[C@H](O)[C@H]2O)OC2C[C@@H](N)[C@@H](O[C@H]3[C@H](O)[C@@H](O)[C@H](N)C[C@@H]3N)OC2[C@@H]1O (some centres unmarked) [Apramycin, apramycin, reference compound]
E. coli 25922
  lowest concentration which gave an inhibition zone: 50 µg/mL
S. aureus
  lowest concentration which gave an inhibition zone: 50 µg/mL

## O=C(N[C@H](CO)[C@H](O)c1ccc([N+](=O)[O-])cc1)C(Cl)Cl [Chloramphenicol, chloramphenicol, reference compound]
E. coli 25922
  lowest concentration which gave an inhibition zone: 1000 µg/mL
S. aureus
  lowest concentration which gave an inhibition zone: 1000 µg/mL

## CC1(C)S[C@@H]2[C@H](NC(=O)C(C(=O)O)c3ccccc3)C(=O)N2[C@H]1C(=O)O (some centres unmarked) [Carbenicillin, carbenicillin, reference compound]
E. coli 25922
  lowest concentration which gave an inhibition zone: 1000 µg/mL
S. aureus
  lowest concentration which gave an inhibition zone: 50 µg/mL

Source: article PMC10619133, “The catechol moiety of obafluorin is essential for antibacterial activity” (RSC Chemical Biology, 2023)
